Results on 3 molecules are retold here after patent US10259753B2, “Multifunctional organic agricultural fertilizer composition and process for preparation thereof” (priority 2014, dated 2019).

Data set [1] deals with Pest worms. Put plainly: Control of pest worms on tomato by Cypermethrin 25% EC in well water treated with the composition. In kind it is in vivo. Conditions: Cypermethrin 125 ml/acre with composition, control: 150 ml/acre in normal well water. As for the experimental part: The following compositions are used in the treatment for Tomato:
(§1) Tomato crop infested with worms was sprayed with Cypermethrin 25% EC using normal well water and well water treated with the compositions of the invention. 4000 Sq. meter was treated only with water and another 8000 square meter plot was treated with composition of the invention as per Example No. 3 or 5. In both the plots, pest is controlled. In treated plot, the pest control is achieved at 95% and with 15% saving in the dosage of cypermethrin pesticide.

Data set [2] in a line: pH and color of cypermethrin spray water treated with the composition. In kind it is physicochemical. Conditions: composition 2 Ltr per 8000 sq. meter; control: normal well water. The procedure: as §1
Data set [3] can be described thus: Urea volatilization: loss of soil-applied urea, from nitrogen content of soil samples. Particulars: 50 Kg urea in soil; 1 ltr of composition where used. As for the experimental part:
Experiment was carried out to check the effect of compositions of present invention to see the efficiency to prevent volatilization in urea.
It is noted that the pH of urea in soil in treatment T2 and T3 was adjusted to 4.5 to 5.0 due to addition of composition of invention.
The soil samples were collected from various selected locations wherever urea is applied and then checked for nitrogen content in laboratory after 0, 2, 4, 6, 8 and 10 days of urea application.

Data set [4] concerns weeds. Put plainly: Control of weeds in cotton crop by glyphosate spray in water treated with the composition. In kind it is in vivo. Particulars: Glyfosate 750 ml/acre with composition, control: 1 Ltr/acre with plain water. As for the experimental part:
The cotton crop was treated with glyphosate at 1 Ltr per acre with plain water and Glyfosate used with the composition of Example 3 and 5 was used at 750 ml/acre.
(§2) The water was treated with composition of example 3 and 5 as given in Table 15 at 2 to 3 ml per ltr of water till the pH of 4.5 and 4.2 is achieved as indicated by the color achieved to the water.

Data set [5] is described as follows: pH and color of glyphosate spray water treated with the composition. Particulars: water treated with composition at 2 to 3 ml per ltr; control: plain water. In kind it is physicochemical. The procedure:
as §2

On to `CC1(C)C(C=C(Cl)Cl)C1C(=O)OC(C#N)c1cccc(Oc2ccccc2)c1` (centres unmarked) [Cypermethrin], for which the “Control of Pest worms” value in data set [1] amounted to 78%. The “pH of Cypermethrin Spray solution” value in data set [2] worked out at 7.20. For the molecule `NC(N)=O` [Plain Urea, Urea], in data set [3], the “pH achieved of urea in soil” value is given as “pH = 7.5”. Molecule `O=C(O)CNCP(=O)(O)O` [Glyfosate, glyphosate] gave a Control of weeds in data set [4] of 72%. In data set [5], the “pH of Glyfosate spray solution” value stood at 7.65.
